Key:
M4 knockout mice = details: but not the other four mAChR subtypes; cited from earlier work
[1] = system: catalepsy induced by the DA receptor antagonist haloperidol; details: cited from earlier work
Human M4 = biological target: T1, Human M4 (Homo sapiens, UniProt P08173); assay: mAChR M4 cell-based functional assay (calcium flux, antagonist mode); details: for IC50: Human M4/Gqi5 CHO-K1 cells, decrease of acetylcholine response; for Emin (% ACh maximum at 30 μM): Human M4
T1 construct: Human or rat M4 cDNA, along with the chimeric G protein Gqi5, were transfected into Chinese hamster ovary (CHO-K1) cells; expressed in transfected cells; host or cells: CHO-K1 (Chinese hamster ovary, ATCC), stably expressing M4 and Gqi5
T1 sequence (P08173 1-479): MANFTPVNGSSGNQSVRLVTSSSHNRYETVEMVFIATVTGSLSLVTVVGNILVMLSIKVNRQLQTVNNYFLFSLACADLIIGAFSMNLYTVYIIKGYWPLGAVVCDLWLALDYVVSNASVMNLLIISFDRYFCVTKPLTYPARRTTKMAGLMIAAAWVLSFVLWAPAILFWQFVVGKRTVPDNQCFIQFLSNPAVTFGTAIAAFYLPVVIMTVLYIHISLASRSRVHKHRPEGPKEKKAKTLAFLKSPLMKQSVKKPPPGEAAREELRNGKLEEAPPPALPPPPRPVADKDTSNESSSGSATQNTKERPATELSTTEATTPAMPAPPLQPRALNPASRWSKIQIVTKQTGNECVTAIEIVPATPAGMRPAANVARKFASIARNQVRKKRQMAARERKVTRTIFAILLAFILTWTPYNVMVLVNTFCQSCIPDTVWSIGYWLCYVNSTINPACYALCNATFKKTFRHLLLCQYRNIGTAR
Method: Human or rat M4 cDNA, along with the chimeric G protein Gqi5, were transfected into Chinese hamster ovary (CHO-K1) cells purchased from the American Type Culture Collection using Lipofectamine2000. M4/Gqi5/CHO cells were grown in Ham's F-12 medium containing 10% heat-inactivated fetal bovine serum (FBS), 20 mM HEPES, 500 μg/mL G418 sulfate, and 200 μg/mL Hygromycin B.
For high throughput measurement of agonist-evoked increases in intracellular calcium, CHO-K1 cells stably expressing muscarinic receptors were plated in growth medium lacking G418 and hygromycin at 15,000 cells/20 μL/well in Greiner 384-well black-walled, tissue culture (TC)-treated, clear-bottom plates (VWR). Cells were incubated overnight at 37° C. and 5% CO2. The next day, cells were washed using an ELX 405 (BioTek) with assay buffer; the final volume was then aspirated to 20 μL. Next, 20 μL of a 2.3 μM stock of Fluo-4/acetoxymethyl ester (Invitrogen, Carlsbad, CA), prepared as a 2.3 mM stock in DMSO and mixed in a 1:1 ratio with 10% (w/v) Pluronic F-127 and diluted in assay buffer, was added to the wells and the cell plates were incubated for 50 min at 37° C. and 5% CO2. Dye was removed by washing with the ELX 405 and the final volume was aspirated to 20 μL. Compound master plates were formatted in a 10 point concentration-response curve (CRC) format (1:3 dilutions) in 100% DMSO with a starting concentration of 10 or 1 mM using a BRAVO liquid handler (Agilent). Test compound CRCs were then transferred to daughter plates (240 nL) using the Echo acoustic plate reformatter (Labcyte, Sunnyvale, CA) and then diluted into assay buffer (40 μL) to a 2× stock using a Thermo Fisher Combi (Thermo Fisher Scientific, Waltham, MA).
Calcium flux was measured using the Functional Drug Screening System (FDSS) 6000 or 7000 (Hamamatsu Corporation, Tokyo, Japan) as an increase in the fluorescent static ratio. Compounds were applied to cells (20 μL, 2×) using the automated system of the FDSS at 2 seconds into the protocol and the data were collected at 1 Hz. At 143 s, 10 μL of an EC20 concentration of the muscarinic receptor agonist acetylcholine was added (5×), followed by the addition of 12 μL of an […] concentration of acetylcholine at the 268 s time point (5×). Agonist activity was analyzed as a concentration-dependent increase in calcium mobilization upon compound addition. Positive allosteric modulator activity was analyzed as a concentration-dependent increase in the EC20 acetylcholine response. Antagonist activity was analyzed as a concentration-dependent decrease in the EC80 acetylcholine response; for the purposes of the tables herein, an IC50 (inhibitory concentration 50) was calculated as a concentration-dependent decrease of the response elicited by an […] concentration of acetylcholine. Concentration-response curves were generated using a four-parameter logistical equation in XLFit curve fitting software (IDBS, Bridgewater, NJ) for Excel (Microsoft, Redmond, WA) or Prism (GraphPad Software, Inc., San Diego, CA) or the Dotmatics software platform (Dotmatics, Bishop's Stortford, UK).
Compounds were synthesized as described above. Activity (IC50 and Emin) was determined in the mAChR M4 cell-based functional assay as described above and the data are shown in Table 1.

CN1[C@@H]2C[C@@H](OC(=O)[C@H](CO)c3ccccc3)C[C@H]1[C@@H]1O[C@@H]12 [scopolamine]
locomotor-activating effects (M4 knockout mice): dramatically reduced | reduction of haloperidol-induced catalepsy ([1]; M4 KO mice): ineffective | reversal of haloperidol-induced catalepsy ([1]; WT mice): completely reversed

Cc1cc(-c2ccc(N[C@H]3C[C@@H]4CN(CC5CCOCC5)C[C@@H]4C3)nn2)cn(C)c1=O [A16, 1,3-dimethyl-5-(6-(((3aR,5s,6aS)-2-((tetrahydro-2H-pyran-4-yl)methyl)octahydrocyclopenta[c]pyrrol-5-yl)amino)pyridazin-3-yl)pyridin-2(1H)-one]
IC50 (Human M4): 1.9 nM | Emin (% ACh maximum at 30 μM) (Human M4): 4%

O=c1ccc(-c2ccc(N[C@H]3C[C@@H]4CN(CC5CCOCC5)C[C@@H]4C3)nn2)cn1C(F)F [A5, 1-(difluoromethyl)-5-(6-(((3aR,5s,6aS)-2-((tetrahydro-2H-pyran-4-yl)methyl)octahydrocyclopenta[c]pyrrol-5-yl)amino)pyridazin-3-yl)pyridin-2(1H)-one]
IC50 (Human M4): 3.8 nM | Emin (% ACh maximum at 30 μM) (Human M4): 4%

Cn1cc(-c2ccc(N[C@H]3C[C@@H]4CN(CC5CCOCC5)C[C@@H]4C3)nn2)cc(F)c1=O [A17, 3-fluoro-1-methyl-5-(6-(((3aR,5s,6aS)-2-((tetrahydro-2H-pyran-4-yl)methyl)octahydrocyclopenta[c]pyrrol-5-yl)amino)pyridazin-3-yl)pyridin-2(1H)-one]
IC50 (Human M4): 13 nM | Emin (% ACh maximum at 30 μM) (Human M4): 3%

From patent publication US20240010640A1, “ANTAGONISTS OF THE MUSCARINIC ACETYLCHOLINE RECEPTOR M4” (Vanderbilt University, priority 2020, published 2024)
